Assay results reported in paper PMC7913925, “Design and Evaluation of a Polypeptide That Mimics the Integrin Binding Site for EDA Fibronectin to Block Profibrotic Cell Activity” (International Journal of Molecular Sciences, 2021).
Bridges are numbered along the chain shown (N, C = ends). Where no end group is shown, it is not given here.

Tested on: Col1a1 mRNA
Assay: qRT-PCR Col1a1 mRNA
Format: cell-based, mouse
Experimental: Reverse transcription (RT) and real-time quantitative PCR (qRT-PCR) were used to assess ACTA2/Acta2, Col1a1, Col3a1, Fn1, Eda-Fn1, Mmp9, Tgfb1, Ltbp1, Hic5, and Mrtfa mRNA expressions. Custom PCR primers were designed in-house (Table 2) and then synthesized by BGI (Beijing, China). Cells were grown in 6-well culture plates and washed with phosphate buffered saline (PBS) before lysis with TRIzon Reagent (CWBio, Beijing, China) and total RNA purification according to the manufacturer’s protocol. Reverse transcription was carried using the TransScript First-Strand cDNA Synthesis SuperMix kit according to the manufacturer’s protocol (TransGen, Beijing, China), using the random primer method for the initiation of cDNA synthesis. Nuclease-free H2O replaced the RNA sample to serve as a negative control for the reverse transcription reaction. For qRT-PCR, 10 µL 2× TransStart Top Green qPCR SuperMix was added to each well of a 96-well PCR plate containing 0.4 µL forward primer, 0.4 µL reverse primer, […], and nuclease-free water to a total volume of 20 µL. The qRT-PCR reaction was completed using a CFX96 Real-Time PCR Detection System (Bio-Rad Laboratories, Hercules, CA, USA). Amplification used the following parameters: 94 °C for 30 s, followed by 40 cycles of 94 °C for 5 s, 55 °C for 15 s, 72 °C for 10 s, and then a dissociation stage (melt-curve). […]

VMPYISTTPAKPCTSENCGNSWYGGFKSKNENKIYFIN (disulfide 13-18 (inferred)) [AF38Pep]
collagen type I mRNA expression (72 h, TGF-β1 + AF38Pep): all inhibited | collagen type I mRNA expression (by 48 h, vs TGF-β1-only): significant attenuation
